PubChem BioAssay (NCI)
Where “and” joins values, the source holds several entries; their conditions need not be identical. Equal values may be shown once.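 Cultured in 96-well plates, cells were exposed to test compound for 48 hours across five concentrations. GI50: concentration for 50% inhibition of growth. TGI marks complete inhibition of growth.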

Experiments:
Assay in all cases: DTP human tumour cell line panel, 48 h
[1] = system: NCI-H226 lung
[2] = system: SN12C renal
[3] = system: EKVX NSCLC
[4] = system: ACHN renal
[5] = system: COLO 205 colon
[6] = system: TK-10 renal
[7] = system: A549 NSCLC
[8] = system: MALME-3M melanoma

SMILES	GI50 [1]	TGI [1]	GI50 [2]	TGI [2]	GI50 [3]	TGI [3]	GI50 [4] [µM]	TGI [4] [µM]	GI50 [5] [µM]	TGI [5] [µM]	GI50 [6]	TGI [6]	GI50 [7]	TGI [7]	GI50 [8]	TGI [8]
C1CCC([PH+](C2CCCCC2)C2CCCCC2[PH+](C2CCCCC2)C2CCCCC2)CC1.[Au].[CH-]1CCCCC1CC1CCCC[N-]1 (stereo not given)	0.561 µM	2.7 µM	0.285 µM	2.93 µM	0.302 µM	1.97 µM	0.902	2.1	0.262	0.696	0.516 µM	2.05 µM	0.241 µM	3.03 µM	0.192 µM	0.739 µM
C=CC(=O)Nc1cccc(Oc2nc(Nc3ccc(N4CCN(C)CC4)cc3)nc3ccsc23)c1	8.23 µM and 10.4 µM	> 10 µM and 36.9 µM	1.58 µM and 1.61 µM	4.35 µM and 4.61 µM	1.55 µM and 2.39 µM	> 10 µM and 16.7 µM	1.07	2.51	2.19	5.27	0.398 µM and 0.6 µM	2.56 µM and 4.04 µM	3.47 µM and 3.71 µM	> 10 µM and 17.6 µM	1.63 µM and 1.83 µM	3.14 µM and 3.66 µM
O=C1OCC2=C1C(c1ccccc1)c1cc3c(cc1N2)OCO3 (stereo not given)	0.0245 µM	0.0742 µM	0.0557 µM	> 65 µM	2.29 µM	> 100 µM	0.0946	36.4	0.0261	0.0703	11.4 µM	> 100 µM	0.0375 µM	> 56.4 µM	14.1 µM	> 100 µM
CO[C@H]1CC(O[C@@H]2/C(C)=C/C[C@@H]3C[C@@H](C[C@]4(C=C[C@H](C)[C@@H](C5CCCCC5)O4)O3)OC(=O)[C@@H]3C=C(C)[C@@H](O)[C@H]4OC/C(=C\C=C\[C@@H]2C)[C@]43O)O[C@@H](C)C1O[C@H]1C[C@H](OC)[C@@H](O)[C@H](C)O1 (stereo not given in full)	1.45 µM	2.95 µM					1.66	3.04	2.03	3.71	1.84 µM	3.51 µM				
CC(=O)/C=C/c1cn(C(=O)OC(C)(C)C)c2ccc(Br)cc12	11.7 µM	28.7 µM	13.8 µM	36.4 µM	24.5 µM	84.3 µM	11.6	24.8	19.5	42.1	17.6 µM	33.9 µM	18.8 µM	52.4 µM	52.1 µM	> 89.2 µM
O=C1NC(=O)C(N2C(=O)c3ccccc3C2=O)CC1O (stereo not given)	> 100 µM	> 100 µM	> 100 µM	> 100 µM	> 100 µM	> 100 µM	> 100	> 100	> 100	> 100	> 100 µM	> 100 µM	> 100 µM	> 100 µM	> 100 µM	> 100 µM
OCC1OC(n2cnc3c(N/N=C\c4ccccn4)ncnc32)C(O)C1O (stereo not given)	0.525 µM	> 100 µM	0.107 µM	7.48 µM	0.49 µM	97 µM	0.2	1.78	0.622	> 100	0.159 µM	> 100 µM	0.399 µM	> 100 µM	0.404 µM	6.19 µM
CC1=C2[C@@H](CC1)[C@]1(C)O[C@@](c3ccccc3)(C[C@H]1OC(=O)CO)[C@H]2OC(=O)/C=C/c1ccccc1	16.6 µM	37.2 µM	1.14 µM	30.2 µM	7.99 µM	41.4 µM	0.0446	5.61	16	33.6	21.9 µM	49.3 µM	14.5 µM	38 µM	20.1 µM	42.8 µM
COc1ccc2cc1Oc1ccc(cc1)C[C@H]1c3c(cc4c(c3Oc3cc5c(cc3OC)CCN(C)[C@@H]5C2)OCO4)CCN1C	4.1 µM	11.5 µM	3.55 µM	10.6 µM	8.47 µM	18 µM	4.59	10.6	0.356	1.36	5.87 µM	12.2 µM	2.03 µM	7.89 µM	1.18 µM	3.01 µM
O=S(=O)(c1ccc(Cl)cc1)C(Cl)(Cl)Cl	4.86 µM	21.9 µM	3.54 µM	30.3 µM	4.68 µM	> 21.4 µM	1.43	> 100	3.38	> 53.4	9.56 µM	> 75.1 µM	3.46 µM	> 50 µM	0.244 µM	3.89 µM
O=C(O)CN1CCN(CC(=O)O)CC(=O)[O][Hg][O]C(=O)C1	> 100 µM	> 100 µM	18.5 µM	34.8 µM	21 µM	41.5 µM	19.6	34.2	17.8	32.5	16 µM	29.5 µM	> 100 µM	> 100 µM	16.6 µM	33 µM
COc1cc2nc(N3CCCC3)nc(NCCc3ccccc3)c2cc1OC	11.4 µM	34 µM	1.87 µM	3.79 µM	1.85 µM	3.9 µM	1.67	3.04			1.97 µM	3.56 µM			1.9 µM	3.38 µM
COc1ccc2c(c1)N(CCO)C1=C(C(=O)OC1)C2c1cccc(F)c1 (stereo not given)	4.16 µM	> 50 µM	0.776 µM	> 50 µM	1.34 µM	> 50 µM	0.386	> 50	0.526	3.25	10.3 µM	> 50 µM	0.746 µM	> 50 µM	0.391 µM	> 50 µM
O=C1CCC(N2Cc3cc(CNC(=O)C(F)(F)c4ccc(Cl)cc4)ccc3C2=O)C(=O)N1 (stereo not given)	1.75 µM	> 100 µM	> 100 µM	> 100 µM	> 100 µM	> 100 µM	> 100	> 100	0.721	> 100	> 100 µM	> 100 µM	> 100 µM	> 100 µM	0.105 µM	> 27.9 µM
COc1ccc(-c2[nH]c3ccccc3c2-c2ccc(OC)cc2)cc1			6.73 µM	23.5 µM	5.05 µM	42.9 µM	11.9	28.3	4.13	16.8	12.6 µM	41 µM	7.14 µM	30.3 µM		
CC(C)C[C@H](NC(=O)CNC(=O)c1cc(Cl)ccc1Cl)B1OC(=O)CC(CC(=O)O)(C(=O)O)O1 (stereo not given in full)	0.0141 µM	0.0325 µM	0.0862 µM	0.982 µM	0.369 µM	30.8 µM	0.0389	> 59.9	0.0868	22.3	0.0287 µM	0.373 µM	0.11 µM	20.6 µM	0.0329 µM	0.412 µM

SMILES	GI50 [1]	TGI [1]	GI50 [2]	TGI [2]	GI50 [3]	TGI [3]	GI50 [4] [µM]	TGI [4] [µM]	GI50 [5] [µM]	TGI [5] [µM]	GI50 [6]	TGI [6]	GI50 [7]	TGI [7]	GI50 [8]	TGI [8]
CCc1ccc2c(c1)N(CCO)C1=C(C(=O)OC1)C2c1cccc(Br)c1 (stereo not given)	0.988 µM	13.2 µM	1.35 µM	18.9 µM	2.45 µM	20.6 µM	1.61	20.4	0.358	1.42	1.81 µM	18.4 µM	0.655 µM	14.8 µM	2.58 µM	25.6 µM
COc1ccc(-c2nc(Nc3cc(C)[nH]n3)c3ccccc3n2)cc1	1.62 µM	> 33.3 µM	2.01 µM	> 100 µM			0.801	> 100	1.5	3.61	0.865 µM	8.11 µM	2.33 µM	44.9 µM	28.5 µM	> 100 µM
O=C1OC(=O)C(=C\c2ccc3c(c2)OCO3)/C1=C/c1ccc2c(c1)OCO2		> 100 µM		> 100 µM		> 100 µM		> 100		> 100		> 100 µM		> 100 µM		> 100 µM
CN1C(=O)N(C)C2C1NN=c1s/c(=C\c3ccc(C(F)(F)F)cc3)c(=O)n12 (stereo not given)	27 µM	> 100 µM	3.89 µM	> 100 µM	4.17 µM	> 100 µM	2.08	38.5	0.776	4.72	4.06 µM	75.9 µM	1.45 µM	> 100 µM	8.33 µM	> 100 µM
CCCN(CCS(C)(=O)=O)Cc1ccc(-c2ccc3ncnc(Nc4ccc(OCc5cccc(F)c5)c(Cl)c4)c3c2)o1	> 25 µM	> 25 µM	> 25 µM	> 25 µM	0.195 µM	> 25 µM	1.23	> 25	> 25	> 25	0.175 µM	> 25 µM	> 25 µM	> 25 µM	> 25 µM	> 25 µM
CCCCCCCCCCCCCCCCCC[n+]1ccc2c(C)c3c(c(C)c2c1)c1cc(O)ccc1n3CC	1.88 µM	8.68 µM	1.79 µM	6.08 µM	2.15 µM	9.93 µM	3.51	19.6			1.49 µM	4.13 µM	1.28 µM	5.47 µM		
CNCCCNCCCCNCCCN1C(=O)c2ccc3c4c(ccc(c24)C1=O)C(=O)N(CCCNCc1ccccc1OC)C3=O	2.17 µM	21.3 µM	2.95 µM	20.5 µM			2.86	30.1	1.38	8.16	4.08 µM	43.5 µM	3.45 µM	20.2 µM	0.939 µM	3.05 µM
C/C(=C\c1ccc2ccccc2c1)[N+](=O)[O-]	2.41 µM	6.97 µM	1.74 µM	3.23 µM			1.79	3.34	2.07	4.36			4.58 µM	19.3 µM	2.07 µM	3.97 µM
O=C1/C(=C/c2ccccc2[N+](=O)[O-])Cc2ccccc21	2.1 µM	9.03 µM	2.54 µM	9.17 µM			1.87	4.87	1.3	2.57	3.14 µM	7.1 µM	2.5 µM	11 µM	2.28 µM	5.71 µM
CN(C)CCCn1c(=O)c2ccccc2c2ccccc21	12.1 µM	38.5 µM	16.9 µM	> 100 µM	13.6 µM	44.9 µM	4.84	> 100	5.58	20.6	20.3 µM	> 100 µM	6.63 µM	49.5 µM		
COc1cc2c3c(n(C)c(=O)c2cc1OC)-c1cc2c(cc1/C3=C\CCCCN1C(=O)c3ccccc3C1=O)OCO2	12.8 µM	31.4 µM					1.8	10.9	6.28	> 100	1.11 µM	29.1 µM	7.03 µM	27.9 µM		
OCc1ccc(N2CCCC2c2ccccc2)cc1Cl (stereo not given)	0.126 µM	0.325 µM	8.22 µM	21.7 µM			11.7	26.9	3.26	11.8	0.195 µM	1.27 µM	2.87 µM	14.9 µM	9.73 µM	28.2 µM
CCCCCCCCCCCCCCCCCC1=NCCN1CCOC1=C(Cl)C(=O)c2ccccc2C1=O			3.18 µM	9.47 µM	1.46 µM	3.32 µM	1.58	3.01	1.67	3.09	2.19 µM	3.76 µM	4.48 µM	22.9 µM	1.95 µM	4.13 µM
O=C1c2cccnc2C(=O)c2c1c(C(=O)NCCCN1CCCCC1)c1ccccn21			0.472 µM	1.84 µM	1.37 µM	3.2 µM	0.464	2.84	0.268	0.928			1.25 µM	3.8 µM	0.226 µM	0.684 µM
COc1cccc(OC(=O)c2ccc(C(F)(F)F)nc2Nc2cc(Cl)ccc2C)c1	4.88 µM	31.5 µM	29.2 µM	> 100 µM	6.6 µM	39.3 µM	15.6	> 100	4.04	> 100	30.7 µM	92 µM	6.1 µM	> 100 µM		
